Assay results: patent US20150119373A1, “NOVEL BETULINIC ACID DERIVATIVES AS HIV INHIBITORS” (HETERO RESEARCH FOUNDATION, priority 2012, published 2015)
Like-named read-outs stand apart in the source and are kept apart here.

Legend:
HIV-1 strain 92HT599 = assay: Antiviral activity: p24 estimation in MT2 cells infected with HIV-1 strain 92HT599; format: cell-based; details: Human immunodeficiency virus 1, MT2 cells, HIV-1 92HT599, ~96 hours, p24; for inhibition at 0.1 µM: 100 nM, read-out: Antiviral activity % inhibition 100 nM; for inhibition at 1 µM: 1000 nM, read-out: Antiviral activity % inhibition 1000 nM
Procedure: MT2 cells were infected with HIV-1 strain 92HT599 (10 TCID 50/30000 cells). The infected cells were plated at the concentration of […] cells per well in 96 well plate. Test compound was added to the micro plate in defined format with the final concentration of DMSO (vehicle) is not more than 1%. Incubation was carried out in CO2 incubator for ˜96 hours for viral infection. At the end of incubation period an aliquot from each well was taken for p24 estimation. The quantitation of p24 is an index for antiviral activity of the compound. Percent inhibition was calculated with reference to control values (vehicle controls).
p-24 estimation was carried out using Advance biosciences kit as per the procedure detailed by supplier.

[1] = Cyto-toxicity assay (MTT) in MT2 cells without virus; format: cell-based; details: human
Procedure: For cyto-toxicity assay the same amount of MT2 cells as in antiviral assay without virus was added to the 96 well plates. The cyto-toxicity was measured using MTT reagent in parallel with p24 estimation. The percent viability is calculated in comparison with vehicle control.

[2] = Single dose oral pharmacokinetic study in mice; format: in vivo; details: for Cmax / Tmax / AUC(0-t) / AUC(0-inf): mouse, plasma
Procedure: The test item was administered through oral route to animals (rat/mice) at 30 mg/kg dose in a suitable vehicle at 10 ml/kg dose volume. Blood samples (˜50 uL at each time point) were collected from retro-orbital plexus using K3 EDTA as anticoagulant in eppendorf tubes at defined time intervals under light ether anesthesia. The samples were centrifuged at 3500×g to separate plasma and stored at −80° C. until analysis.
Sample analysis: Test samples were analyzed using LC-MS-MS after developing fit-for-purpose method for each of test compound.

[3] = Mice oral PK @30 mg/kg (Table 5)
[4] = Oral PK @ 30 mg/ kg dose in mice (Table 6)
[5] = Oral PK @ 30 mg/ kg dose in mice (Table 6), read-out: AUCt

Molecule `C=C(C)[C@@H]1CC[C@]2(C(=O)N[C@@H]3C[C@H](C(=O)N4CCCCC4)C3(C)C)CC[C@]3(C)[C@H](CC[C@@H]4[C@@]5(C)CC[C@H](OC(=O)[C@H]6[C@@H](CC(=O)O)C6(C)C)C(C)(C)[C@@H]5CC[C@]43C)[C@@H]12` [Example 18, 2-((1R,3S)-3-(((1R,3aS,5aR,5bR,7aR,9S,11aR,11bR,13aR,13bR)-3a-((1R,3S)-2,2-dimethyl-3-(piperidine-1-carbonyl)cyclobutylcarbamoyl)-5a,5b,8,8,11a-pentamethyl-1-(prop-1-en-2-yl)icosahydro-1H-cyclopenta[a]chrysen-9-yloxy)carbonyl)-2,2-dimethylcyclopropyl)acetic acid] has an inhibition at 0.1 µM (HIV-1 strain 92HT599) of 100%, an inhibition at 1 µM (HIV-1 strain 92HT599) of 100% and a viability at 100 nM [1] of 82%. It also gave a viability at 1000 nM [1] of 77%, a Cmax [2, 3] of 4230 ng/mL and a Tmax [2, 3] of 2.25 h. The AUC(0-t) ([2]; Mice oral PK @30 mg/kg (Table 5), read-out: AUC 0-t) was 36.6 µg·h/mL.

In the case of `C=C(C)[C@@H]1CC[C@]2(C(=O)N[C@@H]3C[C@H](c4nnc(C)o4)C3(C)C)CC[C@]3(C)[C@H](CC[C@@H]4[C@@]5(C)CC[C@H](OC(=O)[C@H]6C[C@@H](C(=O)O)C6(C)C)C(C)(C)[C@@H]5CC[C@]43C)[C@@H]12` [Example 21, (1R,3S)-3-(((1R,3aS,5aR,5bR,7aR,9S,11aR,11bR,13aR,13bR)-3a-((1R,3S)-2,2-dimethyl-3-(5-methyl-1,3,4-oxadiazol-2-yl)cyclobutylcarbamoyl)-5a,5b,8,8,11a-pentamethyl-1-(prop-1-en-2-yl)icosahydro-1H-cyclopenta[a]chrysen-9-yloxy)carbonyl)-2,2-dimethylcyclobutane carboxylicacid], the inhibition at 0.1 µM (HIV-1 strain 92HT599) is reported as 100%, the inhibition at 1 µM (HIV-1 strain 92HT599) is reported as 100% and the viability at 100 nM [1] is reported as 94%. The viability at 1000 nM [1] was 96%, the Tlast [2, 4] was 24 h and the AUC(0-inf) [2, 4] was 185 µg·h/mL. The Cmax [2, 4] was 5900 ng/mL, the Tmax [2, 4] was 7 h and the AUC(0-t) [2, 5] was 95.5 µg·h/mL.

`[2H]C([2H])([2H])C(CC(=O)O[C@H]1CC[C@]2(C)[C@H]3CC[C@@H]4[C@H]5[C@H](C6(C)CC6)CC[C@]5(C(=O)N[C@@H]5C[C@H](C(=O)N6CCCCC6)C5(C)C)CC[C@@]4(C)[C@]3(C)CC[C@H]2C1(C)C)(C(=O)O)C([2H])([2H])[2H]` [Example 22, 4-(((1R,3aS,5aR,5bR,7aR,9S,11aR,11bR,13aR,13bR)-3a-(((1R,3S)-2,2-dimethyl-3-(piperidine-1-carbonyl)cyclobutyl)carbamoyl)-5a,5b,8,8,11a-pentamethyl-1-(1-methylcyclopropyl)icosahydro-1H-cyclopenta[a]chrysen-9-yl)oxy)-2,2-bis(methyl-d3)-4-oxobutanoic acid] showed an inhibition at 0.1 µM (HIV-1 strain 92HT599) of 100%, an inhibition at 1 µM (HIV-1 strain 92HT599) of 100% and a viability at 100 nM [1] of 100%. The viability at 1000 nM [1] was 87%, the Tlast [2, 4] was 24 h and the AUC(0-inf) [2, 4] was 79 µg·h/mL. It also gave a Cmax [2, 4] of 10200 ng/mL, a Tmax [2, 4] of 1.8 h and an AUC(0-t) [2, 5] of 63.9 µg·h/mL.

In the case of `CC1([C@@H]2CC[C@]3(C(=O)N[C@@H]4C[C@H](C(=O)N5CCCCC5)C4(C)C)CC[C@]4(C)[C@H](CC[C@@H]5[C@@]6(C)CC[C@H](OC(=O)[C@H]7C[C@@H](C(=O)O)C7(C)C)C(C)(C)[C@@H]6CC[C@]54C)[C@@H]23)CC1` [Example 23, (1R,3S)-3-((((1R,3aS,5aR,5bR,7aR,9S,11aR,11bR,13aR,13bR)-3a-(((1R,3S)-2,2-dimethyl-3-(piperidine-1-carbonyl)cyclobutyl)carbamoyl)-5a,5b,8,8,11a-pentamethyl-1-(1-methylcyclopropyl)icosahydro-1H-cyclopenta[a]chrysen-9-yl)oxy)carbonyl)-2,2-dimethylcyclobutane-1-carboxylic acid], the inhibition at 0.1 µM (HIV-1 strain 92HT599) is reported as 100%, the inhibition at 1 µM (HIV-1 strain 92HT599) is reported as 100% and the viability at 100 nM [1] is reported as 100%. For the same molecule, the viability at 1000 nM [1] was 93%, the Tlast [2, 4] was 48 h and the AUC(0-inf) [2, 4] was 628 µg·h/mL. The Cmax [2, 4] was 11000 ng/mL, the Tmax [2, 4] was 4.5 h and the AUC(0-t) [2, 5] was 324 µg·h/mL.

For `[2H]C([2H])([2H])C(CC(=O)O[C@H]1CC[C@]2(C)[C@H]3CC[C@@H]4[C@H]5[C@H](C(=C)C)CC[C@]5(C(=O)N[C@@H]5C[C@H](C(=O)N6CCCCC6)C5(C)C)CC[C@@]4(C)[C@]3(C)CC[C@H]2C1(C)C)(C(=O)O)C([2H])([2H])[2H]` [Example 24, 4-(((1R,3aS,5aR,5bR,7aR,9S,11aR,11bR,13aR,13bR)-3a-(((1R,3S)-2,2-dimethyl-3-(piperidine-1-carbonyl)cyclobutyl)carbamoyl)-5a,5b,8,8,11a-pentamethyl-1-(prop-1-en-2-yl)icosahydro-1H-cyclopenta[a]chrysen-9-yl)oxy)-2,2-bis(methyl-d3)-4-oxobutanoic acid], the inhibition at 0.1 µM (HIV-1 strain 92HT599) was 100%, the inhibition at 1 µM (HIV-1 strain 92HT599) was 100% and the viability at 100 nM [1] was 83%. For the same molecule, the viability at 1000 nM [1] was 99%, the Tlast [2, 4] was 24 h and the AUC(0-inf) [2, 4] was 123 µg·h/mL. For the same molecule, the Cmax [2, 4] was 9100 ng/mL, the Tmax [2, 4] was 2 h and the AUC(0-t) [2, 5] was 70 µg·h/mL.

`[2H]C([2H])([2H])C(CC(=O)O[C@H]1CC[C@]2(C)[C@H]3CC[C@@H]4[C@H]5[C@H](C(=C)C)CC[C@]5(C(=O)N5CCN(CC)CC5)CC[C@@]4(C)[C@]3(C)CC[C@H]2C1(C)C)(C(=O)O)C([2H])([2H])[2H]` [Example 25, 4-(((1R,3aS,5aR,5bR,7aR,9S,11aR,11bR,13aR,13bR)-3a-(4-ethylpiperazine-1-carbonyl)-5a,5b,8,8,11a-pentamethyl-1-(prop-1-en-2-yl)icosahydro-1H-cyclopenta[a]chrysen-9-yl)oxy)-2,2-bis(methyl-d3)-4-oxobutanoic acid] showed an inhibition at 0.1 µM (HIV-1 strain 92HT599) of 100%, an inhibition at 1 µM (HIV-1 strain 92HT599) of 100% and a viability at 100 nM [1] of 100%. It also gave a viability at 1000 nM [1] of 84%, a Tlast [2, 4] of 48 h and an AUC(0-inf) [2, 4] of 122 µg·h/mL. For the same molecule, the Cmax [2, 4] was 6200 ng/mL, the Tmax [2, 4] was 4.5 h and the AUC(0-t) [2, 5] was 108 µg·h/mL.

`CCN1CCN(C(=O)[C@]23CC[C@@H](C4(C)CC4)[C@@H]2[C@H]2CC[C@@H]4[C@@]5(C)CC[C@H](OC(=O)CC(C)(C)CC(=O)O)C(C)(C)[C@@H]5CC[C@@]4(C)[C@]2(C)CC3)CC1` [Example 26, 5-(((1R,3aS,5aR,5bR,7aR,9S,11aR,11bR,13aR,13bR)-3a-(4-ethylpiperazine-1-carbonyl)-5a,5b,8,8,8,11a-pentamethyl-1-(1-methylcyclopropyl)icosahydro-1H-cyclopenta[a]chrysen-9-yl)oxy)-3,3-dimethyl-5-oxopentanoic acid] showed an inhibition at 0.1 µM (HIV-1 strain 92HT599) of 94%, an inhibition at 1 µM (HIV-1 strain 92HT599) of 99% and a viability at 100 nM [1] of 100%. The viability at 1000 nM [1] was 99%, the Tlast [2, 4] was 24 h and the AUC(0-inf) [2, 4] was 151 µg·h/mL. It also gave a Cmax [2, 4] of 6900 ng/mL, a Tmax [2, 4] of 3.5 h and an AUC(0-t) [2, 5] of 99.4 µg·h/mL.

`CC(C)(CC(=O)O[C@H]1CC[C@]2(C)[C@H]3CC[C@@H]4[C@H]5[C@H](C6(C)CC6)CC[C@]5(C(=O)N5CCOCC5)CC[C@@]4(C)[C@]3(C)CC[C@H]2C1(C)C)C(=O)O` [Example 27, 2,2-dimethyl-4-oxo-4-(((1R,3aS,5aR,5bR,7aR,9S,11aR,1bR,13aR,13bR)-5a,5b,8,8,11a-pentamethyl-1-(1-methylcyclopropyl)-3a-(morpholine-4-carbonyl)icosahydro-1H-cyclopenta[a]chrysen-9-yl)oxy)butanoic acid] gave an inhibition at 0.1 µM (HIV-1 strain 92HT599) of 94%, an inhibition at 1 µM (HIV-1 strain 92HT599) of 88% and a viability at 100 nM [1] of 100%. The viability at 1000 nM [1] was 94%, the Tlast [2, 4] was 48 h and the AUC(0-inf) [2, 4] was 106 µg·h/mL. For the same molecule, the Cmax [2, 4] was 7000 ng/mL, the Tmax [2, 4] was 3.5 h and the AUC(0-t) [2, 5] was 101 µg·h/mL.

With `CC1([C@@H]2CC[C@]3(C(=O)N4CCOCC4)CC[C@]4(C)[C@H](CC[C@@H]5[C@@]6(C)CC[C@H](OC(=O)[C@H]7C[C@@H](C(=O)O)C7(C)C)C(C)(C)[C@@H]6CC[C@]54C)[C@@H]23)CC1` [Example 28, (1R,3S)-2,2-dimethyl-3-((((1R,3aS,5aR,5bR,7aR,9S,11aR,11bR,13aR,13bR)-5a,5b,8,8,11a-pentamethyl-1-(1-methylcyclopropyl)-3a-(morpholine-4-carbonyl)icosahydro-1H-cyclopenta[a]chrysen-9-yl)oxy)carbonyl)cyclobutane-1-carboxylic acid] the inhibition at 0.1 µM (HIV-1 strain 92HT599) was 98%, the inhibition at 1 µM (HIV-1 strain 92HT599) was 99% and the viability at 100 nM [1] was 81%. It also gave a viability at 1000 nM [1] of 78%, a Tlast [2, 4] of 48 h and an AUC(0-inf) [2, 4] of 398 µg·h/mL. For the same molecule, the Cmax [2, 4] was 4500 ng/mL, the Tmax [2, 4] was 16 h and the AUC(0-t) [2, 5] was 171 µg·h/mL.
